The text below walks through data of ChEMBL document CHEMBL1201862, “PubChem BioAssay data set” (2004).

Holding throughout (assay): DTP human tumour cell line panel, 48 h
Assay [1] deals with CAKI-1.
The test system of assay [2] is SW-620.
Assay [3] concerns MDA-MB-435.
Assay [4] deals with COLO 205.
Assay [5] has as its system CCRF-CEM.
Assay [6] deals with UO-31.
Assay [7] concerns ACHN.
For assay [8], the system named is SR.
The test system of assay [9] is RXF 393.
Assay [10] deals with MOLT-4.
Assay [11] concerns SN12C.
In assay [12] the test system is HCT-116.
Assay [13] concerns OVCAR-8.
Assay [14] has as its system TK-10.
Assay [15] relates to MDA-MB-231.
Assay [16] concerns M14.
The test system of assay [17] is 786-0.
The subject of assay [18] is NCI-H522.
In assay [19] the test system is NCI-H23.
Assay [20] relates to LOX IMVI.

Each structure is given as a SMILES string.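 Values below derive from 48-hour exposures of cells grown in 96-well plates, with endpoints linearly interpolated between the two concentrations bracketing the appropriate inhibition level. GI50: concentration for 50% inhibition of growth.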 Active and inactive are the calls of the source. No stated cut-off is given here; in the data, active = GI50 up to about 1.1 µM and inactive = higher.

By GI50 is commonly meant the concentration at which growth is held to half of that of the control. `C/C(=N/NC(=S)N1CC2CCC(CC2)C1)c1cnccn1`: the GI50 is < 0.01 µM (active) in assay [1]; < 0.01 µM (active) in [2]; 0.243 µM (active) in assay [3]; < 0.01 µM (active) in assay [4]; < 0.01 µM (active) in [5]; < 0.0168 µM (active) in assay [6]. Also, the GI50 in assay [7] is < 0.012 µM (active); in assay [8], < 0.01 µM (active); in assay [9] it was 0.541 µM (active); in assay [10] it was < 0.01 µM (active); in assay [11], < 0.0178 µM (active); in assay [12] it was < 0.01 µM (active). Also, the GI50 in assay [13] is < 0.01 µM (active); in assay [14], 0.67 µM (active); in assay [15], < 0.01 µM (active); in assay [16] it was < 0.0104 µM (active); in assay [17] it was < 0.01 µM (active); in assay [18] it was 0.117 µM (active). In addition, the GI50 in assay [19] and in [20] was < 0.01 µM (active) each time.

`CN(C)CCCc1cccc2[nH]c3c(c12)CN(C)CC3`: the GI50 is > 100 µM (inactive) in assay [1]; > 100 µM (inactive) in assay [2]; > 100 µM (inactive) in [3]; 63.4 µM (inactive) in assay [4]; 63.2 µM (inactive) in assay [5]; > 100 µM (inactive) in [6]. The GI50 in assay [7] is > 100 µM (inactive); in [8], 27.4 µM (inactive); in assay [9] it was 19.7 µM (inactive); in assay [10], 75 µM (inactive); in [11], > 100 µM (inactive); in [12], > 100 µM (inactive). The GI50 in assay [13] is > 100 µM (inactive); in [14], > 100 µM (inactive); in assay [15], 17.8 µM (inactive); in assay [16] it was 17.3 µM (inactive); in assay [17], 92.3 µM (inactive); in assay [18], > 100 µM (inactive). Besides, the GI50 in assay [19] is > 100 µM (inactive); in assay [20] it was 30.1 µM (inactive).

Take `COc1cc(/C=C2/SC(c3ccccc3)N(c3ccccc3Cl)C2=O)cc(OC)c1OC` (stereo not given): the GI50 in assay [1] is 55.7 µM (inactive); in assay [2] it was 37.8 µM (inactive); in assay [3], 27.2 µM (inactive); in [4], 23.3 µM (inactive); in [5], 12.2 µM (inactive); in assay [6] it was 35.4 µM (inactive). Further, the GI50 was 58.1 µM (inactive) in assay [7]; 23.8 µM (inactive) in [8]; 20.7 µM (inactive) in assay [9]; 28.6 µM (inactive) in [10]; 23.7 µM (inactive) in assay [11]; 23.7 µM (inactive) in [12]. The GI50 in [13] is 35.2 µM (inactive); in [14], 69.5 µM (inactive); in assay [15], 58.3 µM (inactive); in [16], 30.1 µM (inactive); in assay [17] it was 25.9 µM (inactive); in assay [18] it was 14.9 µM (inactive). Also, the GI50 is 22.8 µM (inactive) in [19] and 17.6 µM (inactive) in assay [20].

Take `CN1N(c2ccccc2)C(=O)C2=NC=C(C#N)C(=N)C21C` (stereo not given): the GI50 in assay [1], in assay [2], in assay [3], in [4], in assay [5] and in [6] was > 100 µM (inactive) throughout. The GI50 is 97.7 µM (inactive) in [7]; 19.8 µM (inactive) in [8]; > 100 µM (inactive) in assay [9]; > 100 µM (inactive) in [10]; > 100 µM (inactive) in assay [11]; > 100 µM (inactive) in assay [12]. Further, the GI50 in [13], in [14], in assay [15], in assay [16], in assay [17] and in assay [18] was > 100 µM (inactive) in each case. The GI50 in assay [19] and in [20] was > 100 µM (inactive) each time.

In the case of `COC(=O)c1c2c(cc3c1CC1(Cc4ccccc4C1=O)C3)CCC2` (stereo not given), the GI50 in assay [1] was 10.7 µM (inactive); in assay [2], 31.8 µM (inactive); in [3], 13.5 µM (inactive); in assay [4], 3.52 µM (inactive); in assay [5], 28.2 µM (inactive); in assay [6], 13.9 µM (inactive). Further, the GI50 is 23.9 µM (inactive) in [7]; 15.6 µM (inactive) in [8]; 19.5 µM (inactive) in assay [9]; 12.2 µM (inactive) in assay [10]; 25.7 µM (inactive) in assay [11]; 26.6 µM (inactive) in [12]. Further, the GI50 in [13] was 44.1 µM (inactive); in assay [14], 51.3 µM (inactive); in assay [15], 21.4 µM (inactive); in assay [16] it was 31.3 µM (inactive); in assay [17], 25.2 µM (inactive); in assay [18], 49.8 µM (inactive). Besides, the GI50 is 38.8 µM (inactive) in assay [19] and 31 µM (inactive) in assay [20].

Consider `c1ccc2c(Cc3[nH]c4ccccc4c3Cc3c[nH]c4ccccc34)c[nH]c2c1`, for which the GI50 is 2.74 µM (inactive) in [1]; 1.74 µM (inactive) in [2]; 2.08 µM (inactive) in assay [3]; 2.07 µM (inactive) in assay [4]; 2.16 µM (inactive) in [5]; 3.35 µM (inactive) in assay [6]. Besides, the GI50 was 14.5 µM (inactive) in assay [7]; 2.87 µM (inactive) in assay [8]; 1.94 µM (inactive) in assay [9]; 1.66 µM (inactive) in assay [10]; 1.77 µM (inactive) in assay [11]; 1.69 µM (inactive) in [12]. The GI50 in [13] was 4.09 µM (inactive); in [14] it was 2.85 µM (inactive); in assay [15], 2.12 µM (inactive); in assay [16], 2.36 µM (inactive); in assay [17], 1.73 µM (inactive); in [18], 1.8 µM (inactive). Further, the GI50 in assay [19] was 2.1 µM (inactive); in assay [20], 2.19 µM (inactive).

For the molecule `COc1cc2c(cc1O)NC(=O)[C@@H]1CCCN1C2=O`, the GI50 in assay [1], in assay [2], in assay [3], in [4], in assay [5] and in assay [6] was > 100 µM (inactive) throughout. Also, the GI50 in [7], in assay [8], in assay [9], in assay [10], in assay [11] and in assay [12] was > 100 µM (inactive) in each case. For the same molecule, the GI50 in assay [13], in assay [14], in assay [15], in assay [16], in [17] and in assay [18] was > 100 µM (inactive) each time. The GI50 in [19] and in assay [20] was > 100 µM (inactive) each time.

Consider `O=c1cc(NNc2ccccc2)[nH]c(=S)[nH]1`, for which the GI50 in assay [1] is 20.3 µM (inactive); in assay [2], 20.5 µM (inactive); in [3], 49.5 µM (inactive); in [4] it was 49 µM (inactive); in assay [5] it was 29.8 µM (inactive); in assay [6], > 100 µM (inactive). Further, the GI50 in assay [7] is 43.7 µM (inactive); in assay [8], 22.5 µM (inactive); in [9], 50.2 µM (inactive); in assay [10] it was 35.2 µM (inactive); in assay [11], > 100 µM (inactive); in [12], 23.2 µM (inactive). For the same molecule, the GI50 in assay [13] is 36.1 µM (inactive); in [14] it was 24.9 µM (inactive); in assay [15] it was 32.1 µM (inactive); in assay [16], 36.7 µM (inactive); in assay [17], 4.9 µM (inactive); in assay [18], 17.5 µM (inactive). Moreover, the GI50 was 47.1 µM (inactive) in [19] and 16.8 µM (inactive) in [20].

As to `COCC(C#N)NC1CC(OC2CC(O)(C(=O)CO)Cc3c(O)c4c(c(O)c32)C(=O)c2c(OC)cccc2C4=O)OC(C)C1O` (stereo not given), the GI50 was 0.0388 µM (active) in [1]; 0.033 µM (active) in [2]; 0.108 µM (active) in [3]; 0.0483 µM (active) in assay [4]; 0.0202 µM (active) in assay [5]; 0.442 µM (active) in assay [6]. Also, the GI50 was 0.0581 µM (active) in assay [7]; < 0.0111 µM (active) in [8]; 0.177 µM (active) in assay [9]; < 0.0137 µM (active) in [10]; 0.0422 µM (active) in assay [11]; 0.0385 µM (active) in assay [12]. The GI50 is 0.0676 µM (active) in assay [13]; 0.19 µM (active) in assay [14]; 0.112 µM (active) in assay [15]; 0.134 µM (active) in assay [16]; 0.0434 µM (active) in assay [17]; 0.0321 µM (active) in assay [18]. Also, the GI50 in assay [19] was 0.0592 µM (active); in [20], 0.0292 µM (active).

Consider `Nc1ccn(C2OC(COP(=O)(O)O)C(O)C2O)c(=O)n1` (stereo not given), for which the GI50 was 14.4 µM (inactive) in assay [1]; > 56.9 µM (inactive) in assay [2]; 14.5 µM (inactive) in assay [3]; > 55.3 µM (inactive) in assay [4]; < 0.01 µM (active) in assay [5]; 6.98 µM (inactive) in assay [6]. For the same molecule, the GI50 in [7] is 1.21 µM (inactive); in assay [8] it was 3.39 µM (inactive); in [9], 11.1 µM (inactive); in assay [10] it was 0.0497 µM (active); in assay [11], 7.89 µM (inactive); in assay [12], 1.8 µM (inactive). Also, the GI50 is 2.47 µM (inactive) in assay [13]; > 100 µM (inactive) in assay [14]; > 100 µM (inactive) in assay [15]; 0.982 µM (active) in assay [16]; 5.31 µM (inactive) in assay [17]; 20.2 µM (inactive) in [18]. The figures for the GI50 in [19] and in assay [20] were 8.83 µM (inactive) and 3.08 µM (inactive), respectively.
